{"source": "paper PMC8333425", "about": "“Discovery of a dual Ras and ARF6 inhibitor from a GPCR endocytosis screen” (Nature Communications, 2021)", "key": {"[1]": {"system": "ERK1/2 activation by β2AR", "assay": "Western blot of β2AR-mediated ERK1/2 phosphorylation", "format": "cell-based, human", "conditions": "for p-ERK1/2 over ERK1/2, normalized to basal (0 min), b2AR: Comp 21 50 μM, individual experiments", "experimental": "(§1) HEK293SL cells (10^5 cells per well) were seeded in a poly-L-lysine-coated six-well plate and transiently transfected with 3 μg Flag-AT1R, HA-B2R or HA-β2AR and/or 500 ng Flag-MEK1-WT, Flag-MEK1-DD, Flag-BRAF-WT, Flag-BRAF-V600E, Flag-K-Ras-WT, Flag-K-Ras-G12V, HA-ARF6-WT, or HA-ARF6-T27N. Gαq/11 KO and βarr1/2 KO cells were seeded onto 100 mm dishes at a density of 10^6 cells per dish. Next day, cells were transfected with 3 μg AT1R alone or along with 500 ng of β-arrestin2 using PEI. After 18 h of transfection, cells were detached and re-seeded onto poly-L-lysine coated 12-well plates (~1.5–2 × 10^5cells/well) for subsequent experiments. Forty-eight hours post transfection, in a 37 °C water bath, cells were serum-starved for 30 min, pretreated with DMSO (0.1%) or compound 21/Rasarfin (50 µM or at indicated concentrations) for 30 min, then stimulated or not with the indicated ligand [AngII (1 µM), BK (1 µM), Iso (10 µM) or EGF (100 ng/ml)] at indicated times. Cells were put on ice, washed with PBS and solubilized in 2x laemmli buffer (250 mM Tris–HCl pH 6.8, 2% SDS (w/v), 10% glycerol (v/v), 0.01% bromophenol blue (w/v) and 5% β-mercaptoethanol (v/v)) by heating at 65 °C for 15 min. Lysates were resolved on 10 or 14% SDS-PAGE, transferred to nitrocellulose membranes and immunoblotted for p-ERK1/2, ERK1/2, p-Akt, Akt, HA, Myc, β-actin or FLAG. ImageLab 5.2 software was used to quantify the digital blots as fold of the phosphorylated protein over total protein, which were then normalized as indicated in the figure legends. Uncropped immunoblots are provided in the Source Data file."}, "[2]": {"target": "T1, ARF6 (Homo sapiens, UniProt P62330)", "T1 construct": "expressed in transfected cells; host or cells: HEK293SL", "assay": "GST-GGA3-PBD pull-down of EGFR-mediated ARF6 activation in MDA-MB-231 cells", "format": "cell-based", "conditions": "50 μM", "experimental": "Activation of ARF1, ARF6, Ras, and Rho were assessed by using GST pull-down assays. HEK293SL cells were transiently transfected with 3 µg AT1R-flag only (Ras and Rho) or along with 500 ng HA-ARF6 (ARF6) or HA-ARF1 (ARF1). Forty-eight hours later, the HEK293 or MDA-MB-231 cells were serum-starved for 4 h with DMEM containing 20 mM HEPES then pretreated with DMSO or Rasarfin (50 µM) for 30 min. Cells were then stimulated with 1 µM AngII or 100 ng/ml EGF for 0 and 2 min. Cells were then washed once with ice-cold PBS and lysed for 30 min at 4 °C in 300 µl of lysis buffer (pH 7.5, 50 mM Tris-HCl, 140 mM NaCl, 5 mM MgCl2, 10% glycerol (v/v), 1% Nonidet P-40 (v/v), 1 mM dithiothreitol) supplemented with protease inhibitors (1 mM phenylmethyl-sulfonyl fluoride (PMSF), 10 µg/ml leupeptin, 5 µg/ml aprotinin, 1 µg/ml pepstatin A) and phosphatase inhibitors (20 mM NaF, 0.025 mM pervanadate). The samples were cleared by centrifugation and 30 µl (cell lysates) was kept for assessing total protein contents. The remaining was transferred to fresh tubes with 20 µg of either GST, GST-GGA3-PBD, GST-Raf1-RBD or GST-Rhotekin-RBD coupled to glutathione resin and rotated for 1–2 h at 4 °C. […] ImageLab 5.2 software was used to quantify the digital blots as fold of the amount of pulled down protein over total protein. […]"}, "[3]": {"target": "K-Ras (Homo sapiens, UniProt P01116)", "sequence (P01116 1-188 isoform P01116-2)": "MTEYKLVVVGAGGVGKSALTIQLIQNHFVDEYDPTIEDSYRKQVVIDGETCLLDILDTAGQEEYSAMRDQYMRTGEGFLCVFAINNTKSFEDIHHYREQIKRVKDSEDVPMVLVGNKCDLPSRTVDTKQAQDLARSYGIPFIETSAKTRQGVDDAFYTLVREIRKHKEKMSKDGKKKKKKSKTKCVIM", "assay": "In vitro mant-GTP exchange assay, purified K-Ras-WT with SOS1", "format": "biochemical", "set-up": "GST (N); FLAG (N); host or cells: E. coli BL21", "conditions": "50 μM", "experimental": "Ras activity was assessed in a 384-well black bottom plate using the mant-GTP exchange factor assay that measures the uptake of the fluorescent nucleotide analog N-methylanthraniloyl-GTP (mant-GTP) into GTPases. For Ras activation, 2X exchange buffer, 1.66 μg of purified pGEX-6P-1-H-Ras or pGEX-6P-1-K-Ras-WT or pGEX-6P-1-K-Ras-Y32A were added per well in presence of DMSO, different concentrations of Rasarfin (as indicated) or 50 µM of compounds 21.4, 21.7, or 21.8. Using the Infinite 200 Pro plate reader (Tecan) with filters set at 360 nm and 440 nm for detecting the excitation and emissions, respectively, and temperature set at 20 °C, 5 readings were recorded every 5 s before the addition of either H2O, 40 mM EDTA or 0.66 μg purified SOS1. The fluorescence of mant-GTP uptake was measured every 30 sec for 30 min and quantified as the delta relative fluorescence units (RFU), which was calculated as the RFU post-addition minus the 5 averaged RFU pre-addition, per condition."}, "[4]": {"system": "MEK1", "assay": "Western blot of ERK1/2 phosphorylation induced by MEK1 (MEK1-WT / MEK1-DD)", "format": "cell-based, human", "experimental": "as §1"}, "[5]": {"system": "AT1R", "assay": "Confocal microscopy of YFP-tagged AT1R internalization", "format": "cell-based, human", "conditions": "50 μM; AngII", "experimental": "One day before transfection, cells were seeded in 35-mm glass-bottom dishes (MatTek Corporation) at a density of 1 × 10^5 cells per dish. For the recordings of receptor internalization, HEK293 SL cells were transfected with 2 μg of AT1R-YFP. For the recordings of β-arrestin-2 recruitment to the receptor, HEK293SL cells were transfected with 50 ng of β-arrestin2-YFP and 250 ng of Flag-AT1R or HA-B2R. Forty-eight hours post-transfection, cells were serum starved, preincubated with DMSO (0.1% final concentration) or Rasarfin (50 μM) for 30 min at 37 °C. AT1R-expressing cells were stimulated with angiotensinII (AngII; 100 nM) and B2R-expressing cells were stimulated with bradykinin (BK; 1 μM) for 30 min (receptor-YFP) or 15 min (β-arrestin2-YFP). Cells were imaged with Zeiss LSM-510 and/or LSM-710 laser scanning confocal microscope. To detect YFP, […] and BP 505–550 nm emission filter. Images (2048 × 2048) were collected using a 63x oil immersion lens."}}, "note": "Several values for one entry are separate records, joined by “and”; a condition that tells them apart may be missing. Identical values can stand only once.", "data": [{"smiles": "CC(C)C(=O)N1CCN(c2ccc(NC(=O)c3cc4ccccc4o3)cc2Cl)CC1", "note": "[Compound 21]", "values": [{"measurement": "MAPK response promoted by β2AR", "setting": "[1]; 50 μM", "value": "blocked MAPK responses"}, {"measurement": "p-ERK1/2 over ERK1/2, normalized to basal (0 min), b2AR", "setting": "[1]; time 0 min", "value": 1}, {"measurement": "p-ERK1/2 over ERK1/2, normalized to basal (0 min), b2AR", "setting": "[1]; time 2 min", "value": "1.344 and 1.8469 and 1.974 and 1.462"}, {"measurement": "p-ERK1/2 over ERK1/2, normalized to basal (0 min), b2AR", "setting": "[1]; time 5 min", "value": "1.8675 and 1.745 and 1.249 and 1.487"}, {"measurement": "ARF6 activity in MDA-MB-231 cells (pull-down)", "setting": "[2]", "value": "inhibited"}, {"measurement": "SOS-mediated mant-GTP binding onto purified K-Ras", "setting": "[3]", "value": "inhibited the SOS-mediated mant-GTP binding"}, {"measurement": "ERK1/2 activation induced by overexpression of MEK1-DD", "setting": "[4]; 50 μM", "value": "nor did it block ERK1/2 activation"}, {"measurement": "Predicted (LS) mean diff. DMSO vs. compound (Bonferroni's multiple comparisons test)", "setting": "[4]; Flag-MEK1 DD", "value": 0.4193}, {"measurement": "ERK1/2 phosphorylation relative to mock (S_Fig.4c)", "setting": "[4]; Flag-MEK1 DD, listed as Comp 21", "value": "4.057 and 4.133 and 4.072 and 3.9273"}, {"measurement": "Predicted (LS) mean diff. DMSO vs. compound (Bonferroni's multiple comparisons test)", "setting": "[4]; Flag-MEK1 WT", "value": 0.04596}, {"measurement": "ERK1/2 phosphorylation relative to mock (S_Fig.4c)", "setting": "[4]; Flag-MEK1 WT, listed as Comp 21", "value": "1.754 and 1.134 and 1.2368"}, {"measurement": "ERK1/2 phosphorylation relative to mock (S_Fig.4c)", "setting": "[4]; mock", "value": 1}, {"measurement": "Predicted (LS) mean diff. DMSO vs. compound (Bonferroni's multiple comparisons test)", "setting": "[4]; mock", "value": 0}, {"measurement": "AT1R localization by microscopy", "setting": "[5]", "value": "remained trapped at the PM"}]}]}
